The term EC50 denotes the concentration needed to bring the measured effect to its halfway point. Low readings indicate a more potent agent, high ones a less potent agent.

These results are taken from patent publication US8912220B2 (priority 2009, dated 2014).

human 5-HT2C(VSV), sequence (P28335 33-458 I156V/N158S/I160V limits assumed): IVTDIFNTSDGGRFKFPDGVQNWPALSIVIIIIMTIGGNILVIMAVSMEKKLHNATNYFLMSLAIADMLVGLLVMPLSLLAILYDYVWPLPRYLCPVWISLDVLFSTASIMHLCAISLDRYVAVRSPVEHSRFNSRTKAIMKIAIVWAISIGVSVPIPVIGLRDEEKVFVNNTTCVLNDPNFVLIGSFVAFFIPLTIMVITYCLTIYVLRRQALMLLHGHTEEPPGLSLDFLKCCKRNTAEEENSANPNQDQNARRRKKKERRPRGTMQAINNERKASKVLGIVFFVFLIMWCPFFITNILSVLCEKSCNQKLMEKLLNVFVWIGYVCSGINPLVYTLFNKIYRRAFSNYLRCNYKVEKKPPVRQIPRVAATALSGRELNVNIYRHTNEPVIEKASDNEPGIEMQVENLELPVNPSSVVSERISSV

The assay concerns the target human 5-HT2C(VSV) (Homo sapiens, UniProt P28335, I156V/I160V/N158S). Description: cell-based.
`CCn1cc(CCN(C)Cc2ccccc2)c2c(OCc3ccccc3)cc(F)cc21` [31-6, N-benzyl-2-(4-(benzyloxy)-1-ethyl-6-fluoro-1H-indol-3-yl)-N-methylethanamine] gave a concentration for a half-maximal effect (EC50) of 1 to 500 nM. For the molecule `CCCn1cc(CCNC)c2c(OCc3ccc(C)cc3)c(F)ccc21` [33-16, 2-(5-fluoro-4-(4-methylbenzyloxy)-1-propyl-1H-indol-3-yl)-N-methylethanamine], the EC50 was 1 to 500 nM. `CCn1cc(CCN2CCNCC2)c2c(O)cc(F)cc21` [11-15, 1-ethyl-6-fluoro-3-(2-(piperazin-1-yl)ethyl)-1H-indol-4-ol] showed a concentration for a half-maximal effect (EC50) of 500 to 10000 nM. `COc1ccc(-c2ccc[nH]2)c2c1c(CCN(C)C)cn2C` [6-10, 2-(4-methoxy-1-methyl-7-(1H-pyrrol-2-yl)-1H-indol-3-yl)-N,N-dimethylethanamine] returned an EC50 of 500 to 10000 nM. As for `COc1ccc(CNCCc2cn(C)c3ccc(F)c(OC)c23)cc1OC` [34-8, N-(3,4-dimethoxybenzyl)-2-(5-fluoro-4-methoxy-1-methyl-1H-indol-3-yl)ethanamine], the figure is 1 to 500 nM.

Turning to `COc1cc(F)cc2c1c(CCN(C)C)cn2S(=O)(=O)c1ccccc1` [15-2, 2-(6-fluoro-4-methoxy-1-(phenylsulfonyl)-1H-indol-3-yl)-N,N-dimethylethan amine], the EC50 lay within 500 to 10000 nM. Regarding `CNCCc1cn(C)c2cc(F)cc(OCc3ccc(Cl)cc3)c12` [33-45, 2-(4-(4-chlorobenzyloxy)-6-fluoro-1-methyl-1H-indol-3-yl)-N-methylethanamine], the EC50 lay within 1 to 500 nM. For `CCOc1c(F)ccc2c1c(CCNCc1ccc3c(c1)OCO3)cn2C` [30-18, N-(benzo[d][1,3]dioxol-5-ylmethyl)-2-(4-ethoxy-5-fluoro-1-methyl-1H-indol-3-yl)ethanamine], the EC50 fell in the range of 1 to 500 nM. As for `CCOc1c(F)ccc2c1c(CCNCCc1ccccc1)cn2C` [30-25, 2-(4-ethoxy-5-fluoro-1-methyl-1H-indol-3-yl)-N-phenethylethanamine], the figure is 1 to 500 nM; as for `CCn1cc(CCNCCc2ccccc2)c2c(O)cc(F)cc21` [26-11, 1-ethyl-6-fluoro-3-(2-(phenethylamino)ethyl)-1H-indol-4-ol], 1 to 500 nM.

Turning to `CNCCc1cn(C)c2ccc(F)c(OCc3ccc(S(C)(=O)=O)cc3)c12` [33-38, 2-(5-fluoro-1-methyl-4-(4-(methylsulfonyl)benzyloxy)-1H-indol-3-yl)-N-methylethanamine], the EC50 was in the range of 1 to 500 nM. The value for `CCn1cc(CCNCc2cccc(C(F)(F)F)c2)c2c(O)cc(F)cc21` [31-12, 1-ethyl-6-fluoro-3-(2-(3-(trifluoromethyl)benzylamino)ethyl)-1H-indol-4-ol] was 1 to 500 nM.

`CCn1cc(CCNCCc2cccc(C(F)(F)F)c2)c2c(OCc3ccccc3)cc(F)cc21` [31-13, 2-(4-(benzyloxy)-1-ethyl-6-fluoro-1H-indol-3-yl)-N-(3-(trifluoromethyl)phenethyl)ethanamine] registered a 50% effective concentration (EC50) of 1 to 500 nM. Take `CNCCc1cn(C)c2c(F)cc(CCC3CCCCC3)c(OC)c12` [23-5, 2-(5-(2-cyclohexylethyl)-7-fluoro-4-methoxy-1-methyl-1H-indol-3-yl)-N-methylethanamine]: the 50% effective concentration (EC50) lay within 1 to 500 nM.

On to `CNCCc1cn(C)c2ccc(F)c(OCc3ccccc3-c3ccccc3)c12` [33-30, 2-(4-(biphenyl-2-ylmethoxy)-5-fluoro-1-methyl-1H-indol-3-yl)-N-methylethanamine], for which the half-maximal effective concentration (EC50) lay in the range of 1 to 500 nM. Molecule `CCn1cc(CCN2Cc3ccccc3C2)c2c(OCc3ccccc3)cc(F)cc21` [31-3, 4-(benzyloxy)-1-ethyl-6-fluoro-3-(2-(isoindolin-2-yl)ethyl)-1H-indole] gave an EC50 of 500 to 10000 nM. As for `CN(C)CCc1cn(C)c2ccc(F)c(OCc3cccs3)c12` [1-20a, 2-(5-fluoro-1-methyl-4-(thiophen-2-ylmethoxy)-1H-indol-3-yl)-N,N-dimethylethanamine], the figure is 1 to 500 nM; as for `CCOc1c(F)ccc2c1c(CCNCc1ccccc1Cl)cn2C` [30-17, N-(2-chlorobenzyl)-2-(4-ethoxy-5-fluoro-1-methyl-1H-indol-3-yl)ethanamine], 1 to 500 nM. As for `CNCCc1cn(C)c2ccc(F)c(OCCc3ccccc3)c12` [33-26, 2-(5-fluoro-1-methyl-4-phenethoxy-1H-indol-3-yl)-N-methylethanamine], the figure is 1 to 500 nM; as for `CCn1cc(CCNCc2ccccc2C)c2c(OC)ccc(F)c21` [20-9, 2-(1-ethyl-7-fluoro-4-methoxy-1H-indol-3-yl)-N-(2-methylbenzyl)ethanamine], 1 to 500 nM; as for `CCn1cc(CCN(C)CCc2cn(CC)c3cc(F)cc(OC)c23)c2c(OC)cc(F)cc21` [39-5, 2-(1-ethyl-6-fluoro-4-methoxy-1H-indol-3-yl)-N-(2-(1-ethyl-6-fluoro-4-methoxy-1H-indol-3-yl)ethyl)-N-methylethanamine], 1 to 500 nM. The value for `CCOc1c(F)ccc2c1c(CCN1CCOCC1)cn2C` [30-23, 4-(2-(4-ethoxy-5-fluoro-1-methyl-1H-indol-3-yl)ethyl)morpholine] was 500 to 10000 nM; that for `CCCn1cc(CCNC)c2c(OCc3ccc(F)cc3)c(F)ccc21` [33-15, 2-(5-fluoro-4-(4-fluorobenzyloxy)-1-propyl-1H-indol-3-yl)-N-methylethanamine] was 1 to 500 nM; that for `NCCc1cn(CC2CCCCO2)c2ccc(F)c(O)c12` (centres unmarked) [19-3, 3-(2-Aminoethyl)-5-fluoro-1-((tetrahydro-2H-pyran-2-yl)methyl)-1H-indol-4-ol] was 1 to 500 nM.

As for `CCCn1cc(CCN)c2c3c(ccc21)OCCO3` [40-6, 2-(7-propyl-3,7-dihydro-2H-[1,4]dioxino[2,3-e]indol-9-yl)ethanamine], the 50% effective concentration (EC50) was under 10000 nM.

For `CCn1cc(CCN2C[C@@H]3C[C@H]2CN3Cc2ccccc2)c2c(O)cc(F)cc21` [31-7, 3-(2-((1S,4S)-5-benzyl-2,5-diazabicyclo[2.2.1]heptan-2-yl)ethyl)-1-ethyl-6-fluoro-1H-indol-4-ol], the EC50 lay within 500 to 10000 nM.

Take `CNCCc1cn(C)c2ccc(F)c(OCCc3ccc(Cl)cc3)c12` [33-29, 2-(4-(4-chlorophenethoxy)-5-fluoro-1-methyl-1H-indol-3-yl)-N-methylethanamine]: the half-maximal effective concentration (EC50) lay within 1 to 500 nM. The value for `CNCCc1cn(C)c2ccc(F)c(OCc3cc(F)ccc3C)c12` [33-33, 2-(5-fluoro-4-(5-fluoro-2-methylbenzyloxy)-1-methyl-1H-indol-3-yl)-N-methylethanamine] was 1 to 500 nM. As for `COc1ccc(C#CCO)c2c1c(CCN(C)C)cn2C` [6-11, 3-(3-(2-(dimethylamino)ethyl)-4-methoxy-1-methyl-1H-indol-7-yl)prop-2-yn-1-ol], the figure is 1 to 500 nM; as for `CNCCc1cn(C)c2ccc(F)c(OCCc3ccc(OC)cc3)c12` [33-25, 2-(5-fluoro-4-(4-methoxyphenethoxy)-1-methyl-1H-indol-3-yl)-N-methylethanamine], 1 to 500 nM; as for `CCOc1c(F)ccc2c1c(CCNCc1cccs1)cn2C` [30-28, 2-(4-ethoxy-5-fluoro-1-methyl-1H-indol-3-yl)-N-(thiophen-2-ylmethyl)ethanamine], 1 to 500 nM. `CCOc1c(F)ccc2c1c(CCNCc1cccc(C(F)(F)F)c1)cn2C` [30-22, 2-(4-ethoxy-5-fluoro-1-methyl-1H-indol-3-yl)-N-(3-(trifluoromethyl)benzyl)ethanamine] showed an EC50 of 1 to 500 nM.
